How the values were obtained:
[1] = Solubilization of α-bisabolol in the culture medium by RP-HPLC; type: physicochemical; conditions: after 24 hours
Experimental: α-bisabolol at a purity ≥95% (GC) was purchased from Sigma-Aldrich, St. Louis, MO. The dose-dependent solubilization of α-bisabolol in the culture medium over 24 hours was determined by a reverse-phase high performance liquid chromatography (RP-HPLC) method, developed in the Department of Food Science of Bologna University, Cesena office, Italy. All measurements were performed in duplicate. The α-bisabolol concentrations indicated throughout the article represent the calculated soluble fraction in the assay.

leukemic blasts = assay: Mitochondrial membrane potential, JC-1 staining; type: cell-based, human; conditions: 40 μM α-bisabolol, 3 and 5 hours, JC-1, 6 leukemias tested
Experimental: (§1) Cells resuspended in CM at 1 × 10^6/mL were treated with 40 μM α-bisabolol for 3 or 5 hours at 37°C. They were then washed with pre-warmed CM, 4 μM of the potential sensitive dye JC-1 (5,5',6,6'-tetra-chloro-1,1',3,3'-tetra-ethyl-benz-imidazolyl-carbocyanine iodide, Molecular Probes, Eugene, OR) was added, and they were then placed back into the incubator. After 30 minutes they were washed twice with pre-warmed PBS. An aliquot of each sample was spotted onto a slide, mounted with a coverslip and immediately recorded by an Axio Observer inverted microscope (Zeiss, Gottingen, DE). Visualization of JC-1 monomers (green fluorescence) and JC-1 aggregates (red fluorescence) was done using filter sets for fluorescein and rhodamine dyes (emission 488 and 550 nm respectively). Image captures of random fields using fixed imaging parameters were performed, and previously unviewed areas of cells were captured to avoid photobleaching. Image analysis was done using Axiovision 3 software. The other aliquot of each sample was resuspended in PBS and analyzed using a FACSCalibur cytometer (Becton Dickinson) equipped with a 488 nm argon laser. The emission of JC-1 monomers was detected in Fl-1 using a 530/30 nm bandpass filter, and JC-1 aggregates were detected in Fl-2 using a 585/42 nm bandpass filter. FlowJo 8.8.2 software (Tree Star, Ashland, OR) was used to analyze data.

normal lymphocytes = assay: Mitochondrial membrane potential, JC-1 staining; type: cell-based, human; conditions: similar α-bisabolol concentration (40 μM)
Experimental: as §1

BID = assay: Western blot for BID cleavage and mitochondrial translocation; type: cell-based, human
Experimental: Cells were homogenized at 4°C in 50 mM Tris-HCl (pH 8) containing 0.1% Nonidet-P40 (NP-40), 200 mM KCl, 2 mM MgCl2, 50 μM ZnCl2, 2 mM DTT, and protease inhibitors [1 mM phenylmethylsulfonyl fluoride (PMSF), 1 mg/mL leupeptin, and 1 mg/mL antipain]. Aliquots of the homogenates (40 μg total protein/lane) were loaded on SDS-polyacrylamide gels at the appropriate concentrations. Electrophoresis was performed at 100 V with a running buffer containing 0.25 M Tris-HCl (pH 8.3), 1.92 M glycine, and 1% SDS. The resolved proteins were electroblotted onto a nitrocellulose membrane using the iBlot™ system (Invitrogen, Carlsbad, CA). Membranes were then incubated with a mouse monoclonal IgG antibody to poly(ADP-ribose) polymerase (PARP) (Zymed, South San Francisco, CA), with a rabbit polyclonal IgG antibody to BID (Cell Signaling Technology, Danvers, MA) or with a rabbit polyclonal IgG antibody to α-tubulin (Cell Signaling Technology). The membranes were then washed and incubated with an anti-mouse or anti-rabbit IgG peroxidase-conjugated antibody (Cell Signaling Technology). The blots were washed again and then incubated with enhanced chemiluminescent detection reagents (Immun-Star™ WesternC™ Kit, Bio-Rad, Hercules, CA) according to the manufacturer's instructions. Proteins were detected using the ChemiDoc XRS Imaging System (Bio-Rad). […]

[2] = Concentrations and tolerability in healthy mice; type: in vivo; conditions: 1.4 g/Kg α-bisabolol

CC(C)=CCC[C@](C)(O)[C@@H]1CC=C(C)CC1 [α-bisabolol]
incremental ratio of measured to added concentrations ([1]; 0-250 μM added, double series of 7 concentrations): 0.65
fraction of the α-bisabolol added measured in the culture medium ([1]; RP-HPLC): around 65%
mitochondrial transmembrane potential (ΔΨm) (leukemic blasts): dissipates the mitochondrial transmembrane potential
mitochondrial transmembrane potential (ΔΨm) (normal lymphocytes): no mitochondrial damage
cleavage of BID to truncated BID (BID; 24-hour α-bisabolol, any concentration, PBMCs and blasts): did not induced the cleavage of BID
BID translocation to mitochondrial fraction (BID; different times and solubilized doses of α-bisabolol): No BID translocation was detected
blood parameters of liver and kidney functionality [2]: preserved
concentration in the brain [2]: exceeded 50 μM

Reference: PMC3112094, “Pro-apoptotic activity of α-bisabolol in preclinical models of primary human acute leukemia cells” (Journal of Translational Medicine, 2011)
